Reference: paper PMC3352596 (Bioorganic & medicinal chemistry letters, 2011)
Each block holds one compound with its values, some of them ahead of it.

Assays:
HCV = settings: non-obligatory chain terminators toward RNA elongation; cited from earlier work
[1] = cited from earlier work
Huh7 cells = experiment: cytotoxicity in Huh7 cells by amplification of ribosomal RNA; type: cell-based; settings: for inhibition at 10 µM: Homo sapiens, Huh-7, read-out: Anti-HCV activity: % inhib @ 10 μM in Huh7 cells, rRNA; for cytotoxicity / toxicity to cell lines: Huh7, PBM, CEM, Vero cell lines
[2] = tested on: HCV RNA replication (subgenomic HCV replicon); experiment: inhibition of HCV RNA replication in Huh7 cells, subgenomic HCV replicon system; type: cell-based, Hepatitis C virus; settings: for inhibition at 10 µM: Hepatitis C virus, Huh-7, read-out: Anti-HCV activity: % inhib @ 10 μM in Huh7 cells, HCV, 10 μM, Huh7 cells, HCV RNA; for antiviral activity or cytotoxicity: anti-HCV, anti-HIV and cytotoxicity assays of Table 1
adenosine deaminase [3] = molecular target: T1, adenosine deaminase (Bos taurus, UniProt P56658); experiment: inhibition of ADA catalyzed conversion of adenosine to inosine; type: biochemical; settings: compounds tested at 10 μM
T1 sequence (P56658 1-363): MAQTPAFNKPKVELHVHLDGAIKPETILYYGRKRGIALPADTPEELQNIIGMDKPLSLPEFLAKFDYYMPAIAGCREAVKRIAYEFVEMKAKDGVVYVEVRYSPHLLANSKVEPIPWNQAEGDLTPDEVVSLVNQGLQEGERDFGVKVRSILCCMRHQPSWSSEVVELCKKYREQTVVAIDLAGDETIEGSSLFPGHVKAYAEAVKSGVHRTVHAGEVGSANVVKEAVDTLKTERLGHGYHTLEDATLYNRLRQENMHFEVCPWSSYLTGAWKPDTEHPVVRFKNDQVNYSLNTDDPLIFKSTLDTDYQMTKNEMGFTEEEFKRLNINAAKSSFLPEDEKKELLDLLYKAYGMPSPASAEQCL

adenosine deaminase [4] = molecular target: T1, adenosine deaminase; experiment: evaluation as substrates of adenosine deaminase; type: biochemical
[5] = stability in pH 7.4 phosphate buffer; type: physicochemical; settings: 23 °C, 3 days
[6] = cytotoxicity in CEM cells; type: cell-based; settings: human, lymphoblastoid CEM cells

SMILES: C[C@@]1(O)[C@H](O)[C@@H](CO)O[C@H]1n1cnc2c(N)ncnc21 [Compound 1, 2′-C-Methyl adenosine]
in vitro anti-HCV activity (HCV): selective in vitro anti-HCV activity
in vivo bioavailability [1]: poor bioavailability

SMILES: C[C@@]1(O)[C@H](O)[C@@H](CO)O[C@H]1n1cnc2c(=O)[nH]c(N)nc21 [Compound 2, 2′-C-methyl guanosine]
in vitro anti-HCV activity (HCV): selective in vitro anti-HCV activity
in vivo bioavailability [1]: poor bioavailability

SMILES: Cc1nc(N)nc2c1ncn2[C@@H]1O[C@H](CO)[C@@H](O)[C@@]1(C)O [Compound 6]
inhibition at 10 µM (Huh7 cells): 0%

SMILES: CCOC(=O)[C@H](C)NP(=O)(OC[C@H]1O[C@@H](n2cnc3c(C)nc(N)nc32)[C@](C)(O)[C@@H]1O)Oc1ccccc1 (stereo partly shown) [Compound 7]
anti-HCV activity / inhibition of HCV replicon RNA replication ([2]; up to 10 μM): did not display any inhibition of HCV replicon RNA replication
inhibition at 10 µM (Huh7 cells): 0%

SMILES: CCOP(=O)(OCC)c1nc(N)nc2c1ncn2[C@@H]1O[C@H](CO)[C@@H](O)[C@@]1(C)O [Compound 9]
inhibition at 10 µM [2]: 18.7%
inhibition at 10 µM (Huh7 cells): 14.8%
ability to inhibit ADA catalyzed conversion of adenosine to inosine (adenosine deaminase [3]): Only compound 21 was found effective
substrate of adenosine deaminase (nitrogen to oxygen transformation) (adenosine deaminase [4]): none underwent a nitrogen to oxygen transformation

SMILES: CCOP(=O)(O)c1nc(N)nc2c1ncn2[C@@H]1O[C@H](CO)[C@@H](O)[C@@]1(C)O [Compound 10]
inhibition at 10 µM [2]: 19.3%
ability to inhibit ADA catalyzed conversion of adenosine to inosine (adenosine deaminase [3]): Only compound 21 was found effective
substrate of adenosine deaminase (nitrogen to oxygen transformation) (adenosine deaminase [4]): none underwent a nitrogen to oxygen transformation

SMILES: Cc1nc2c3ncn([C@@H]4O[C@H](CO)[C@@H](O)[C@@]4(C)O)c3nc(N)n2n1 [Compound 13a]
inhibition at 10 µM (Huh7 cells): 0%

ability to inhibit ADA catalyzed conversion of adenosine to inosine (adenosine deaminase [3]): Only compound 21 was found effective
SMILES: C[C@@]1(O)[C@H](O)[C@@H](CO)O[C@H]1n1cnc2c1nc(N)n1nc(-c3ccco3)nc21 [Compound 13b]
inhibition at 10 µM (Huh7 cells): 0%

SMILES: C[C@@]1(O)[C@H](O)[C@@H](CO)O[C@H]1n1cnc2c(N)nc(Cl)nc21 [Compound 17]
antiviral activity or cytotoxicity [2]: no antiviral activity or cytotoxicity

SMILES: COc1nc(Cl)nc2c1ncn2[C@@H]1O[C@H](CO)[C@@H](O)[C@@]1(C)O [Compound 18]
inhibition at 10 µM [2]: 14.3%
antiviral activity or cytotoxicity [2]: no antiviral activity or cytotoxicity

SMILES: C[C@@]1(O)[C@H](O)[C@@H](CO)O[C@H]1n1cnc2c(N)nc(NN)nc21 [Compound 19]
cytotoxicity / toxicity to cell lines (Huh7 cells): no observed cytotoxicity
stability in phosphate buffer [5]: complete conversion of 19 to a complex mixture of products after 3 days

SMILES: C[C@@]1(O)[C@H](O)[C@@H](CO)O[C@H]1n1cnc2c(N)nc(N=[N+]=[N-])nc21 [Compound 20]
antiviral activity or cytotoxicity [2]: no antiviral activity or cytotoxicity
inhibition at 10 µM (Huh7 cells): 0%

SMILES: C[C@@]1(O)[C@H](O)[C@@H](CO)O[C@H]1n1cnc2c(N)nc(-n3ccnn3)nc21 [Compound 21]
antiviral activity or cytotoxicity [2]: no antiviral activity or cytotoxicity
inhibition at 10 µM (Huh7 cells): 0%
ability to inhibit ADA catalyzed conversion of adenosine to inosine (adenosine deaminase [3]): effective
substrate of adenosine deaminase (nitrogen to oxygen transformation) (adenosine deaminase [4]): none underwent a nitrogen to oxygen transformation

SMILES: C[C@@]1(O)[C@H](O)[C@@H](CO)O[C@H]1n1cnc2c(N)nc(-n3cc([Si](C)(C)C)nn3)nc21 [Compound 22]
antiviral activity or cytotoxicity [2]: no antiviral activity or cytotoxicity
inhibition at 10 µM (Huh7 cells): 0%

SMILES: C[C@@]1(OC(=O)c2ccccc2)[C@H](OC(=O)c2ccccc2)[C@@H](COC(=O)c2ccccc2)O[C@H]1n1cnc2c(N)nc(NO)nc21 [Compound 26]
CC50 [6]: 27.4 µM
cytotoxicity / toxicity to cell lines (Huh7 cells): broad toxicity against most cell lines tested

SMILES: C[C@@]1(OC(=O)c2ccccc2)[C@H](OC(=O)c2ccccc2)[C@@H](COC(=O)c2ccccc2)O[C@H]1n1cnc2c(Cl)nc(NO)nc21 [Compound 27]
inhibition at 10 µM (Huh7 cells): 99.9%
cytotoxicity / toxicity to cell lines (Huh7 cells): broad toxicity against most cell lines tested

ability to inhibit ADA catalyzed conversion of adenosine to inosine (adenosine deaminase [3]): Only compound 21 was found effective
SMILES: C[C@@]1(O)[C@H](O)[C@@H](CO)O[C@H]1n1cnc2c(N)n[nH]c(=O)c21 [Compound 32, 4-amino-1-(2-methyl-β-D-ribofuranosyl)-3H-imidazo[4,5-d] pyriazin-7-(6H)-one]
inhibition at 10 µM (Huh7 cells): 0%
substrate of adenosine deaminase (nitrogen to oxygen transformation) (adenosine deaminase [4]): none underwent a nitrogen to oxygen transformation

SMILES: C[C@@]1(O)[C@H](O)[C@@H](CO)O[C@H]1n1cnc2c(=N)n(N)[nH]c(=O)c21 [Compound 33]
inhibition at 10 µM (Huh7 cells): 0%

ability to inhibit ADA catalyzed conversion of adenosine to inosine (adenosine deaminase [3]): Only compound 21 was found effective
SMILES: C[C@@]1(O)[C@H](O)[C@@H](CO)O[C@H]1n1cnc2c(=O)[nH]nc(N)c21 [Compound 35, 7-amino-1-(2-methyl-δ -D-ribofuranosyl)-1H-imidazo [4,5-d] pyridazin-4-(5H)-one]
inhibition at 10 µM (Huh7 cells): 0%
